The values that follow come from patent US20260166039A1 (SCHRÖDINGER, INC., priority 2022, published 2026).

The target in the first assay is T1, Wee1 kinase domain (Homo sapiens, UniProt P30291).
T1 construct: Wee1 kinase domain was purchased from Carna (catalog #05-177); purchased Carna 05-177
T1 sequence (P30291 299-569 limits assumed): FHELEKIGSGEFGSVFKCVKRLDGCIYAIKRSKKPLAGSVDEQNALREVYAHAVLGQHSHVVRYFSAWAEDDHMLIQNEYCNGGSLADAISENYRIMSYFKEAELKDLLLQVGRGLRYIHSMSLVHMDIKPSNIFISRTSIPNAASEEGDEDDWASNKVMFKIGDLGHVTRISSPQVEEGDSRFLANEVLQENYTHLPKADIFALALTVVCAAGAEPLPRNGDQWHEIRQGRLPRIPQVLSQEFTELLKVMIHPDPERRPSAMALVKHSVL
Briefly: Wee1 Kinase Biochemical Assay (ADP-Glo). The conditions noted are these: Wee1 kinase domain, 15 uM ATP, ADP-Glo. The method, then:
Wee1 Kinase Biochemical Assay Protocol
Wee1 kinase domain was purchased from Carna (catalog #05-177). Wee1 kinase activity was determined with Poly(Lys,Tyr 4:1) hydrobromide as a substrate (Sigma-Aldrich) and by measuring ADP production using the ADP-Glo Kinase Assay kit (Promega) following the manufacturer's instructions. The kinase reaction was performed using the following conditions:
Buffer: 40 mM Tris-HCl, 20 mM magnesium chloride, supplemented with 0.1 mg/mL bovine serum albumin and 2 mM DTT. The final reaction mix contained 1 nM Wee1 enzyme, 15 uM ATP, and 2 ng/mL Poly(Lys,Tyr 4:1) hydrobromide substrate. The reaction time was 4 hours at 25° C.
The ADP-Glo signal was measured using the Envision plate reader and the percentage inhibition of kinase activity calculated for each inhibitor tested. Percent inhibition of Wee1 kinase activity was calculated based on the following formula.
[formula] • SSample: the signal of compounds • SHigh Ctrl: the signal of high control (DMSO) • SLow Ctrl: the signal of low control (positive control Wee1 inhibitor at saturating concentration)
(ADP-Glo turns the ADP formed in a reaction into a luminescent signal.)
By IC50 is commonly meant the midpoint of a concentration-inhibition curve. A high value points to lower potency. As to `C[C@H]1COC(=O)N1c1cccc(N2c3nc(Nc4ccc([C@H]5CCN(C)C5)cc4)ncc3[C@]3(C)COC(C)(C)C[C@H]23)n1` (single isomer, unassigned) [Example 307], the IC50 was less than 10 nM. The same measure, in the same setting: the value for `CN1Cc2cc(Nc3ncc4c(n3)N(c3cccc(N=S(C)(C)=O)n3)[C@H]3CC(C)(C)OC[C@@]43C)ccc2C2(CC2)C1` (single isomer, unassigned) [Example 108] was 10 to 100 nM; that for `CNCc1cccc(N2c3nc(Nc4ccc([C@@H]5CCCO5)cc4)ncc3C3(C)COC(C)(C)C[C@H]23)n1` (single isomer, unassigned) [Example 57] was 10 to 100 nM; that for `C[C@H]1COC(=O)N1c1cccc(N2c3nc(N)ncc3[C@@]3(C)COC(C)(C)C[C@@H]23)n1` (single isomer, unassigned) [Example 356] was 10 to 100 nM. With `C[C@H]1COC(=O)N1c1cccc(N2c3nc(Nc4ccc(O[C@H]5CCNC5)cc4)ncc3[C@]3(C)COC(C)(C)C[C@H]23)n1` (single isomer, unassigned) [Example 328], the IC50 fell in the range of 100 to 1000 nM. For `CNCc1cccc(N2c3nc(Nc4ccc([C@H]5CCC(=O)N5C)nc4)ncc3[C@]3(C)COC(C)(C)C[C@H]23)n1` (single isomer, unassigned) [Example 97], the IC50 is 100 to 1000 nM. Turning to `CC1(C)C[C@H]2N(c3cccc([C@@H]4CCCN4)n3)c3nc(Nc4ccn(C5CCOCC5)c(=O)c4)ncc3[C@@]2(C)CO1` (single isomer, unassigned) [Example 392], the IC50 was less than 10 nM.

The molecule `C[C@H]1COC(=O)N1c1cccc(N2c3nc(Nc4ccc(C5CNC5)cc4)ncc3[C@]3(C)COC(C)(C)C[C@H]23)n1` (single isomer, unassigned) [Example 308] showed an IC50 of 10 to 100 nM. On the same count and under the same terms, the value for `CN1CCC(n2ccc(Nc3ncc4c(n3)N(c3cccc(N=S(C)(C)=O)n3)C3CC(C)(C)OCC43C)cc2=O)CC1` (single isomer, unassigned) [Example 151] was 100 to 1000 nM; that for `C[C@H]1COC(=O)N1c1cccc(N2c3nc(Nc4ccc(O[C@@H]5CCN(C)C5)nc4)ncc3[C@]3(C)COC(C)(C)C[C@H]23)n1` (single isomer, unassigned) [Example 282] was 100 to 1000 nM; that for `C[C@H]1COC(=O)N1c1cccc(N2c3nc(Nc4ccc(O[C@H]5CCNC5)nc4)ncc3[C@]3(C)COC(C)(C)C[C@H]23)n1` (single isomer, unassigned) [Example 284] was 10 to 100 nM. Same read-out and setting: the figure for `Cc1cc(Nc2ncc3c(n2)N(c2cccc(N=S(C)(C)=O)n2)[C@H]2CC(C)(C)OC[C@@]32C)ccc1C1CCN(C)CC1` (single isomer, unassigned) [Example 103] is 10 to 100 nM; for `CNCc1cccc(N2c3nc(Nc4ccc([C@H]5CCC(=O)N5C)cc4)ncc3[C@]3(C)COC(C)(C)C[C@H]23)n1` (single isomer, unassigned) [Example 53] it is not below 1000 nM; for `Cc1cc(Nc2ncc3c(n2)N(c2cccc(N4C(=O)OC[C@@H]4C)n2)[C@H]2CC(C)(C)OC[C@@]32C)ccc1N1CCN(C)CC1` (single isomer, unassigned) [Example 236] it is 10 to 100 nM.

Regarding `C[C@H]1COC(=O)N1c1cccc(N2c3nc(Nc4ccc(N5C[C@H]6C[C@@H]5CN6C)c(F)c4)ncc3[C@]3(C)COC(C)(C)C[C@H]23)n1` (single isomer, unassigned) [Example 290], the IC50 was less than 10 nM.

`C[C@H]1COC(=O)N1c1cccc(N2c3nc(Nc4ccn(C)c(=O)c4)ncc3[C@]3(C)COC(C)(C)C[C@H]23)n1` (single isomer, unassigned) [Example 340]: the IC50 lay within 100 to 1000 nM. As to `CN1CCC(c2cc(Nc3ncc4c(n3)N(c3cccc(N=S(C)(C)=O)n3)[C@H]3CC(C)(C)OC[C@@]43C)on2)CC1` (single isomer, unassigned) [Example 203], the IC50 lay within 100 to 1000 nM.

With `C[C@H]1COC(=O)N1c1cccc(N2c3nc(Nc4ccc(N5CC6(CN(C)C6)C5)cc4)ncc3[C@]3(C)COC(C)(C)C[C@H]23)n1` (single isomer, unassigned) [Example 354], the IC50 fell in the range of 10 to 100 nM.

The assay is the same for the next values; noted with them: class symbols; 1 nM Wee1 enzyme, 15 uM ATP, 4 hours at 25° C.
`CNCc1cccc(N2c3nc(NC(=O)[C@H]4C[C@@H]4c4ccccc4)ncc3[C@@]3(C)COC(C)(C)C[C@@H]23)n1` [Example 761, (1S,2S)-2-phenyl-N-((4bR,8aR)-4b,7,7-trimethyl-9-(6-((methylamino)methyl)pyridin-2-yl)-4b,5,7,8,8a,9-hexahydropyrano[3′,4′:4,5]pyrrolo[2,3-d]pyrimidin-2-yl)cyclopropane-1-carboxamide]: the IC50 fell in the range of 10 to 100 nM.

As for `CC[C@]1(O)CCc2ccc(N3c4nc(Nc5ccc(N6C[C@@H]7C[C@H]6CN7C)cc5)ncc4[C@@]4(C)COC(C)(C)C[C@@H]34)nc21` [Example 791, (S)-7-ethyl-2-((4bR,8aR)-4b,7,7-trimethyl-2-((4-((1S,4S)-5-methyl-2,5-diazabicyclo[2.2.1]heptan-2-yl)phenyl)amino)-4b,7,8,8a-tetrahydropyrano[3′,4′:4,5]pyrrolo[2,3-d]pyrimidin-9(5H)-yl)-6,7-dihydro-5H-cyclopenta[b]pyridin-7-ol], the IC50 is less than 10 nM. The same measure, in the same setting: the figure for `CN1CC2(C1)CN(c1ccc(Nc3ncc4c(n3)N(c3cccc(N5CCOC5=O)n3)[C@H]3CC(C)(C)OC[C@@]43C)cc1)C2` [Example 708, 3-(6-((4bS,8aS)-4b,7,7-trimethyl-2-((4-(6-methyl-2,6-diazaspiro[3.3]heptan-2-yl)phenyl)amino)-4b,7,8,8a-tetrahydropyrano[3′,4′:4,5]pyrrolo[2,3-d]pyrimidin-9(5H)-yl)pyridin-2-yl)oxazolidin-2-one] is 10 to 100 nM; for `CN1CC2(C1)CN(c1ccc(Nc3ncc4c(n3)N(c3cccc(N5C(=O)OCC5(C)C)n3)[C@@H]3CC(C)(C)OC[C@]43C)cc1)C2` (single isomer, unassigned) [Example 785] it is less than 10 nM. Molecule `CN1CC[C@H]2CN(c3ccc(Nc4ncc5c(n4)N(c4cccc(C(C)(C)O)n4)[C@H]4CC(C)(C)OC[C@@]54C)cc3)C[C@H]21` (single isomer, unassigned) [Example 440] yielded an IC50 of 10 to 100 nM. `CC1(C)C[C@@H]2N(c3cccc([C@H]4CCNC4)n3)c3nc(Nc4ccc(N5CCOCC5)cc4)ncc3[C@]2(C)CO1` (single isomer, unassigned) [Example 540]: the IC50 lay in the range of 10 to 100 nM.

`CN1C[C@@H]2CN(c3ccc(Nc4ncc5c(n4)N(c4ccccn4)[C@@H]4CC(C)(C)OC[C@]54C)cc3)C[C@@H]2C1` (single isomer, unassigned) [Example 803] came in with an IC50 of less than 10 nM.

Molecule `CC1(C)C[C@H]2N(c3cccc(N=S(C)(C)=O)n3)c3nc(Nc4ccncc4)ncc3[C@@]2(C)CO1` (single isomer, unassigned) [Example 512] gave an IC50 of 100 to 1000 nM.

Turning to `CC1(C)C[C@@H]2N(c3cccc([C@H]4CCNC4)n3)c3nc(Nc4ccc(N5CCOCC5)cc4)ncc3[C@]2(C)CO1` (single isomer, unassigned) [Example 541], the IC50 lay in the range of 100 to 1000 nM. In the case of `CNCc1cccc(N2c3nc(Nc4ccc(-n5ccnc5)c(F)c4)ncc3[C@]3(C)COC(C)(C)C[C@H]23)n1` (single isomer, unassigned) [Example 465], the IC50 lay within 100 to 1000 nM. On to `CNC1(c2cccc(N3c4nc(Nc5ccc(N6CCOCC6)cc5)ncc4[C@]4(C)COC(C)(C)C[C@H]34)n2)CC1` (single isomer, unassigned) [Example 544], for which the IC50 was in the range of 100 to 1000 nM.

In turn, `CNCc1cccc(N2c3nc(Nc4ccc([C@@H]5CCNC5)cc4)ncc3[C@]3(C)COC(C)(C)C[C@H]23)n1` (single isomer, unassigned) [Example 453] showed an IC50 of 100 to 1000 nM. `CC1(C)C[C@@H]2N(c3ccc4c(n3)[C@@](C)(N)CC4)c3nc(Nc4ccc(N5CCOCC5)cc4)ncc3[C@]2(C)CO1` (single isomer, unassigned) [Example 566] displayed an IC50 not below 1000 nM. For the molecule `CN1[C@@H]2C[C@H]1CN(c1ccc(Nc3ncc4c(n3)N(c3cccc(N5CCCC5=O)n3)[C@H]3CC(C)(C)OC[C@@]43C)cc1)C2` [Example 704, 1-(6-((4bS,8aS)-4b,7,7-trimethyl-2-((4-((1R,5S)-6-methyl-3,6-diazabicyclo[3.1.1]heptan-3-yl)phenyl)amino)-4b,7,8,8a-tetrahydropyrano[3′,4′:4,5]pyrrolo[2,3-d]pyrimidin-9(5H)-yl)pyridin-2-yl)pyrrolidin-2-one], the IC50 was 100 to 1000 nM. In turn, `C[C@H]1CN(c2cccc(N3c4nc(Nc5ccc(N6CCN(C)CC6)cc5)ncc4[C@]4(C)COC(C)(C)C[C@H]34)n2)C(=O)O1` (single isomer, unassigned) [Example 598] yielded an IC50 of 100 to 1000 nM. In turn, `CC1(C)C[C@@H]2N(c3cccc([C@@H]4CNCCO4)n3)c3nc(Nc4ccc(N5CCOCC5)cc4)ncc3[C@]2(C)CO1` [Example 736, (4bS,8aS)-4b,7,7-trimethyl-9-(6-((S)-morpholin-2-yl)pyridin-2-yl)-N-(4-morpholinophenyl)-4b,5,7,8,8a,9-hexahydropyrano[3′,4′:4,5]pyrrolo[2,3-d]pyrimidin-2-amine] had an IC50 of 100 to 1000 nM. In the case of `CC1(C)C[C@@H]2N(c3cccc([C@H]4CNCCO4)n3)c3nc(Nc4ccc(N5CCOCC5)cc4)ncc3[C@]2(C)CO1` [Example 738, (4bS,8aS)-4b,7,7-trimethyl-9-(6-((R)-morpholin-2-yl)pyridin-2-yl)-N-(4-morpholinophenyl)-4b,5,7,8,8a,9-hexahydropyrano[3′,4′:4,5]pyrrolo[2,3-d]pyrimidin-2-amine], the IC50 was in the range of 10 to 100 nM.
